Data set [1] in a line: α-Helicity of VIP by circular dichroism. The format is physicochemical. As to the method: (§1) • Lipid:peptide saturation ratio and number of peptide/micelle were determined via fluorescent spectroscopy where 10 μM of VIP was incubuated with varying concentration of SSM or SSMM to achieve lipid:peptide molar ratio ranging from 0 to 40. The data was then fitted into a simple, rectangular hyperbola curve using SigmaPlot® to determine lipid:peptide saturation ratio. The maximum number of peptide molecules that could interact with each micelle was calculated from the aggregation number of lipid monomers per micelle (˜90) for both SSM and SSMM (Ashok B, et al. J Pharm Sci 2004; 93: 2476-2487). • α-helicity was determined by CD using 20 μM of VIP in 5 mM of SSM or SSMM (lipid:VIP ratio of 250:1). The same samples were used for particle size measurement. • Fluorescent anisotropy was conducted using 100 μM of VIP in 4.5 mM of SSM or SSMM (lipid:VIP ratio of 45:1) which is close to the lipid:peptide saturation ratio. The measurements were done using Perkin Elmer luminescence spectrometer LS50B.

A short description of data set [2]: Circulating half life of VIP in vivo. The note with it: read-out: Circulating t½ in vivo (converted).
Data set [3] can be described thus: Fluorescent anisotropy of VIP. Type of data set: physicochemical. The note with it: 100 μM VIP, […] SSM or SSMM (lipid:VIP 45:1). On the procedure: as §1
Data set [4] in a line: Stability of VIP and VIP-SSM in human serum. The note with it: buffer or solvent.
Description: Since VIP is highly susceptible to enzymatic hydrolysis in serum, we have also tested serum stability of SSM-VIP formulation in a surrogate in vitro system. Briefly, DSPE-PEG2000 (5 mM) was weighed and hydrated (10 mM HEPES buffer, pH 7.4). VIP (5 nmol) was added to preformed SSM and incubated for 2 h at 25° C. to form VIP-SSM. Formulation was then incubated in human serum (25, 50% v/v). Sample aliquots were removed and analyzed on 0, 1, 3, 5 and 7 days following storage at 37° C. These samples were analyzed for the % of intact VIP associated with SSM following separation of unbound VIP from SSM.

As for `CC[C@H](C)[C@H](NC(=O)[C@H](CO)NC(=O)[C@H](CC(N)=O)NC(=O)[C@H](CC(C)C)NC(=O)[C@H](Cc1ccc(O)cc1)NC(=O)[C@H](CCCCN)NC(=O)[C@H](CCCCN)NC(=O)[C@@H](NC(=O)[C@H](C)NC(=O)[C@H](CCSC)NC(=O)[C@H](CCC(N)=O)NC(=O)[C@H](CCCCN)NC(=O)[C@H](CCCNC(=N)N)NC(=O)[C@H](CC(C)C)NC(=O)[C@H](CCCNC(=N)N)NC(=O)[C@@H](NC(=O)[C@H](Cc1ccc(O)cc1)NC(=O)[C@H](CC(N)=O)NC(=O)[C@H](CC(=O)O)NC(=O)[C@@H](NC(=O)[C@H](Cc1ccccc1)NC(=O)[C@@H](NC(=O)[C@H](C)NC(=O)[C@H](CC(=O)O)NC(=O)[C@H](CO)NC(=O)[C@@H](N)Cc1c[nH]cn1)C(C)C)[C@@H](C)O)[C@@H](C)O)C(C)C)C(=O)N[C@@H](CC(C)C)C(=O)N[C@@H](CC(N)=O)C(N)=O` [VIP in saline, vasoactive intestinal peptide], the “% α-Helix of VIP” value in data set [1] amounted to 5 ± 1%. Further, in data set [2], the half-life is 18 min. In data set [3], the Anisotropy is reported as 0.052 ± 0.004. Also, the metabolised at 24 h in data set [4] was around 65%.

Source of the values: patent US20100062969A1, “HYDROPHILIC POLYMER-CONJUGATED LIPIDS FOR PEPTIDE AND PROTEIN FOLDING DISORDERS” (priority 2006, published 2010).
